According to patent US8304453B2, “Composition comprising at least one alkanolamide to inhibit migration of langerhans cells and uses therof” (Laboratoires Expanscience, priority 2001, dated 2012):

Tests used:
dendritic cells [1] = assay: Migration of dendritic cells to draining ganglions in mouse sensitised by FITC hapten (AK100 ± LU105, Example 4); type: in vivo
Description: FITC (Fluoresceine isothiocyanate, Sigma, St Louis, Mo.) was extemporaneously diluted in an acetone mix (dibutylphthalate (1:1)).
Alkanolamide AK100 and LU105 (LU 105 is an MMP inhibitor, corresponding to a peptide extract of white lupin marketed by the Expanscience Company under the brand name Actimp (193®) were supplied by “Laboratoires Expanscience” and formulated alone or association with each other in an inert vehicle compatible with a topical application (alkanolamide AK100 (0.1%)± LU105 (2%)). The different formulations were applied on the ears of mice twice per day for 4 consecutive days. 1.5% of FITC was applied on both ears (one treated and the other not treated (Control)) three hours after the last application.
The effect of the two molecules was evaluated in vivo in the mouse. 1.5% FITC (2×5 μl) was applied on the skin of both ears. […] The cells were then centrifuged for 10 minutes at 600×g (m×s^−2) on a metrizamide gradient (14.5% in RPMI 1640; 7.5% SVF) The interface cells were retrieved, rinsed and then marked with an anti-CDS86 PE-conjugated, biot-MHC CLII mAbs AC plus streptavidine-Cya (PharMingen) and analysed by flux cytometry. Only the FITC^+, PE^+ and Cya^+ cells are counted since they represent the population of cells that migrated from the skin to GLs following the application of hapten.

[2] = system: dendritic cells generated in vitro from CD34+ precursors derived from blood from the umbilical cord; assay: Migration of dendritic cells generated in vitro from CD34+ precursors of umbilical cord blood, activated by hapten BB; type: cell-based, human; conditions: for Percentage of dendritic cells generated in vitro that migrated: BB + AK100 1 μM; for inhibition at 1 µM: Homo sapiens, Dendritic cell
Protocol: Mononucleated cells were obtained from blood from the umbilical cord of healthy donors by centrifuging on Ficoll. The CD34+ cells were then purified by immunoselection using a specific antibody and magnetic balls (Miltenyi Biotech, Germany). The CD34+ cells were cultivated in the presence of GM-CSF (100 ng/ml), TNF-α (2.5 ng/ml) in RPMI to which 10% calf foetus serum was added for 5 days. TGF-β1, a factor that encourages differentiation of cells to the Langerhans cells […], was added on the 5th day of culture.
Cells were treated by hapten BB on the 7th day (Brandowski base, 1.17 μg/ml) for 24 h, and were then subjected to the migration test.
The results represent the percentage of cells that migrated in the presence of the different tested products. The percentage is calculated by taking the ratio of the number of cells recovered in the lower compartment of the migration chamber, to the number of cells subjected to migration. AK100 inhibits the migration of dendritic cells by 51 and 25% in experiments 1 and 2 respectively.

[3] = system: Langerhans cells freshly isolated from human skin; assay: Migration of Langerhans cells freshly isolated from human skin, activated by DNSB (two-compartment Matrigel chamber); type: cell-based
Protocol: Epidermal cell suspensions were obtained by enzymatic treatment (0.05% trypsine for 18 h at +4° C.) of fragments of normal human skin taken from plastic surgery. The suspensions obtained contain an average of 2 to 4% of LC. Obtaining suspensions containing an average of 70% of LC is based on the principle of centrifuging on density gradient (Lymphoprep™) and elimination of keratinocytes.
The basic medium chosen for the entire study was PRMI 1640 (Gibco BRL, France). The AK100 molecule supplied by Pharmascience, with a concentration of 10^−2 M in solution in DMSO (Dimethyl Sulfoxide) was diluted in RPMI-1640 and tested at 1 μM.
The sensitising agent was DNSB (Sigma Aldrich), a soluble form of DNCB (dinitro-chloro-benzene) solubilised in RPMI-BSA and used at a concentration of 50 μM.
A culture chamber system with two compartments (Falcon, Becton Dickinson, France) was used. The upper compartment is separated from the lower compartment by a membrane with 8 μm porosity, on which 50 μg/cm^2 Matrigel was deposited. […] After 18 h incubation at 37° C., the number of living cells that passed through the Matrigel and that are located in the lower compartment is counted under a microscope (the LCs are easily identifiable by their dendritic form). […]

dendritic cells [4] = assay: Migration of dendritic cells to draining ganglions in mouse sensitised by FITC hapten (AK100 ± OX100, Example 5); type: in vivo; conditions: for Migration inhibition in %: FITC
Protocol: FITC (Fluoresceine isothiocyanate, Sigma, St. Louis, Mo.) was diluted extemporaneously in a mixture of acetone and dibutylphthalate (1:1).
Alkanolamide AK100 and OX100 (described above) were supplied by “Laboratoires Expanscience” and formulated alone or in association in an inert vehicle compatible with a topical application [AK100 (0.05%)±OX100 (0.05%)]. The different formulations were applied on the ears of mice twice per day for 4 consecutive days. Three hours after the last application, 1.5% of FITC was applied on both ears (one treated and the other not treated (Control)).
The effect of the two molecules was evaluated in vivo in the mouse. 1.5% FITC (2×5 μl) was applied on the skin of both ears. 24 h later, the mice were sacrificed and a cellular suspension was prepared from auricular and cervical ganglions (draining ganglions, hereinafter denoted GL) or from the poplital ganglions (non-draining ganglions, negative control). The tissues were cut and cells separated by filtration (100 μm filter, Falcon; Becton Dickinson) and then washed. The cells were then centrifuged for 10 minutes at 600×g (m×s^−2) on a metrizamide gradient (14.5% in RPMI 1640; 7.5% SVF). The interface cells were retrieved, rinsed and then marked with an anti-CDS86 PE-conjugated, biot-MHC CLII mAbs AC plus streptavidine-Cya (PharMingen) and analysed by flux cytometry. Only the FITC^+, PE^+ and Cya^+ cells are counted since they represent the population of cells that migrated from the skin to GLs following the application of hapten.

[5] = mice sensitised by FITC hapten, topical

Structure (SMILES) | Migration inhibition in % (dendritic cells [1]; 0.1% topical on ears twice per day for 4 days, FITC) [%] | Inhibition of migration of DCs to LGs (dendritic cells [1]; [5]) | Inhibition of migration of dendritic cells activated by hapten BB ([2]; 1 μM) | Percentage of dendritic cells generated in vitro that migrated ([2]; Experiment 1, BB alone 17) [%] | Percentage of dendritic cells generated in vitro that migrated ([2]; Experiment 2, BB alone 24) [%] | inhibition at 1 µM ([2]; Experiment 1, 1 μM) [%] | inhibition at 1 µM ([2]; Experiment 2, 1 μM) [%] | Inhibition of migration of LCs induced by DNSB ([3]; 1 μM) | LC migration index ([3]; DNSB 50 μM + AK100 1 μM, 18 h, control cells set to 1, DNSB alone 2.55) | Migration inhibition in % (dendritic cells [4]; AK100 0.05% topical on ears twice per day for 4 days) [%] | Inhibition of migration of DCs to LGs (dendritic cells [4]; [5]) | Migration inhibition in % (dendritic cells [4]; OX100 0.05% topical on ears twice per day for 4 days) [%]
CCCCCCCCCCCC(=O)NC(C)(C)CO [AK100] | 30 | significantly inhibits | significantly inhibits | 8.4 | 18 | 51 | 25 | significantly inhibits | 1.11 | 15 | significantly inhibits | 
CCCCCCCCCCCC1=NC(C)(C)CO1 [OX100, 2-undecyl-4,4-dimethyl-1,3-oxazoline] |  |  |  |  |  |  |  |  |  |  |  | 15
